In ChEMBL document CHEMBL3217614, “HIV-1 protease inhibitors with a tertiary alcohol containing transition-state mimic and various P2 and P1 substituents” (Medchemcomm, 2011):

Columns and labels:
[1] = Cytotoxicity against human MT4 cells after 5 days by XTT assay; type: cell-based
Protease = Protease (Human immunodeficiency virus 1, UniProt Q9YQ12); test: Inhibition of HIV1 protease expressed in Escherichia coli using DABCYL-gamma-Abu-Ser-Gln-ASN-Tyr-Pro-Ile-Val-Gln-EDANS as substrate after 20 mins by fluorescence assay
Protease, sequence (Q9YQ12 whole entry): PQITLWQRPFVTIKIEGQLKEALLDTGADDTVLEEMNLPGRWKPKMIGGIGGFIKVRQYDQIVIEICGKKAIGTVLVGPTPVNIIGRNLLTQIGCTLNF

[2] = test system: Human immunodeficiency virus; test: Antiviral activity against HIV infected in human MT4 cells by XTT assay; type: functional, organism-based; conditions: Human immunodeficiency virus 1, MT4
[3] = Intrinsic clearance in human liver microsomes after 30 mins by LC-MS/MS analysis; type: ADME; conditions: read-out: CLH
[4] = Apparent permeability from apical to basolateral side in human Caco2 cells at 10 uM after 60 mins; type: ADME, cell-based; conditions: Caco-2
[5] = Intrinsic clearance in human liver microsomes at 2 uM after 10 to 30 mins by LC-MS/MS analysis; type: ADME; conditions: read-out: CLH
[6] = Apparent permeability from apical to basolateral side in human Caco2 cells at 10 uM after 30 to 120 mins; type: ADME, cell-based; conditions: Caco-2
[7] = Intrinsic clearance in human liver microsomes after 0.5 to 30 mins by LC-MS/MS analysis; type: ADME; conditions: read-out: CLH
[8] = test system: Human immunodeficiency virus 1; test: Antiviral activity against HIV1 RF infected in human MT2 cells after 4 to 7 days by ELISA; type: functional, organism-based; conditions: Human immunodeficiency virus 1, RF

SMILES: CNC(=O)[C@@H](NC(=O)[C@@](O)(CCCN(Cc1ccc(-c2ccccc2)cc1)NC(=O)[C@@H](NC(=O)OC)C(C)(C)C)Cc1ccccc1)C(C)(C)C
- CC50 at 120 h [1]: > 50 µM
- Ki (Protease): 0.0046 µM
- EC50 [2]: 1 µM
- microsomal CLint [3]: > 300 µL/min/mg
- Papp A→B at 1 h, 10 µM [4]: 21 ×10⁻⁶ cm/s

SMILES: CNC(=O)[C@@H](NC(=O)[C@@](O)(CCCN(Cc1ccc(C#Cc2cccnc2)cc1)NC(=O)[C@@H](NC(=O)OC)C(C)(C)C)Cc1ccccc1)C(C)(C)C
- CC50 at 120 h [1]: > 50 µM
- Ki (Protease): 0.0034 µM
- EC50 [2]: 2.1 µM
- microsomal CLint [3]: > 300 µL/min/mg
- Papp A→B at 1 h, 10 µM [4]: 6.1 ×10⁻⁶ cm/s

SMILES: CNC(=O)[C@@H](NC(=O)[C@@](O)(CCCN(Cc1ccc(-c2ccccn2)cc1)NC(=O)[C@@H](NC(=O)OC)C(C)(C)C)Cc1ccccc1)C(C)(C)C
- CC50 at 120 h [1]: > 50 µM
- Ki (Protease): 0.0063 µM
- EC50 [2]: 4.9 µM

SMILES: CNC(=O)[C@@H](NC(=O)[C@@](O)(CCCN(Cc1ccc(Br)cc1)NC(=O)[C@@H](NC(=O)OC)C(C)(C)C)Cc1ccccc1)C(C)C
- CC50 at 120 h [1]: > 10 µM
- Ki (Protease): 0.0027 µM

SMILES: COC(=O)N[C@H](C(=O)N[C@@H](Cc1ccccc1)[C@@H](O)CN(Cc1ccc(-c2ccccn2)cc1)NC(=O)[C@@H](NC(=O)OC)C(C)(C)C)C(C)(C)C [ATAZANAVIR]
- microsomal CLint at 2 µM [5]: 90 µL/min/mg
- Papp A→B at 10 µM [6]: 5.3 ×10⁻⁶ cm/s
- microsomal CLint [7]: 140 µL/min/mg
- EC50 [8]: 0.0039 µM

SMILES: CNC(=O)[C@H](CC(C)C)NC(=O)[C@@](O)(CCCN(Cc1ccc(Br)cc1)NC(=O)[C@@H](NC(=O)OC)C(C)(C)C)Cc1ccccc1
- CC50 at 120 h [1]: > 10 µM
- Ki (Protease): 0.065 µM
- EC50 [2]: > 10 µM

SMILES: CNC(=O)[C@@H](NC(=O)[C@@](O)(CCCN(Cc1ccc(C#Cc2ccncc2)cc1)NC(=O)[C@@H](NC(=O)OC)C(C)(C)C)Cc1ccccc1)C(C)(C)C
- CC50 at 120 h [1]: > 50 µM
- Ki (Protease): 0.0066 µM
- EC50 [2]: 8.9 µM

SMILES: CNC(=O)[C@@H](NC(=O)[C@@](O)(CCCN(Cc1ccc(Br)cc1)NC(=O)[C@@H](NC(=O)OC)C(C)(C)C)Cc1ccccc1)C(C)(C)C
- CC50 at 120 h [1]: > 10 µM
- Ki (Protease): 0.0062 µM
- EC50 [2]: 2 µM
- microsomal CLint [3]: 180 µL/min/mg
- Papp A→B at 1 h, 10 µM [4]: 4.6 ×10⁻⁶ cm/s

SMILES: CNC(=O)[C@@H](NC(=O)[C@@](O)(CCCN(Cc1ccc(-c2ccsc2)cc1)NC(=O)[C@@H](NC(=O)OC)C(C)(C)C)Cc1ccccc1)C(C)(C)C
- CC50 at 120 h [1]: > 50 µM
- Ki (Protease): 0.0036 µM
- EC50 [2]: 1 µM

SMILES: CNC(=O)[C@H](C)NC(=O)[C@@](O)(CCCN(Cc1ccc(Br)cc1)NC(=O)[C@@H](NC(=O)OC)C(C)(C)C)Cc1ccccc1
- CC50 at 120 h [1]: > 10 µM
- Ki (Protease): 0.018 µM
- EC50 [2]: 2.6 µM

SMILES: CNC(=O)[C@@H](NC(=O)[C@](O)(CCCN(Cc1ccc(Br)cc1)NC(=O)[C@@H](NC(=O)OC)C(C)(C)C)Cc1ccccc1)C(C)(C)C
- CC50 at 120 h [1]: > 10 µM
- Ki (Protease): > 5 µM
- EC50 [2]: > 10 µM

SMILES: COC(=O)N[C@H](C(=O)NN(CCC[C@@](O)(Cc1ccccc1)C(=O)N[C@H](CO)C(C)(C)C)Cc1ccc(Br)cc1)C(C)(C)C
- CC50 at 120 h [1]: > 10 µM
- Ki (Protease): 0.13 µM
- EC50 [2]: > 10 µM

SMILES: CNC(=O)[C@@H](NC(=O)[C@@](O)(CCCN(Cc1ccc(C#Cc2ccccn2)cc1)NC(=O)[C@@H](NC(=O)OC)C(C)(C)C)Cc1ccccc1)C(C)(C)C
- CC50 at 120 h [1]: > 50 µM
- Ki (Protease): 0.007 µM
- EC50 [2]: 1.2 µM

SMILES: CNC(=O)[C@@H](NC(=O)[C@@](CCCN(Cc1ccc(Br)cc1)NC(=O)[C@@H](NC(=O)OC)C(C)(C)C)(Cc1ccccc1)O[Si](C)(C)C(C)(C)C)C(C)(C)C
- CC50 at 120 h [1]: > 10 µM
- Ki (Protease): 2.7 µM
- EC50 [2]: > 10 µM

SMILES: CNC(=O)[C@@H](NC(=O)[C@@](O)(CCCN(Cc1ccc(-c2ccncc2)cc1)NC(=O)[C@@H](NC(=O)OC)C(C)(C)C)Cc1ccccc1)C(C)(C)C
- CC50 at 120 h [1]: > 50 µM
- Ki (Protease): 0.0035 µM
- EC50 [2]: 1.1 µM
- microsomal CLint [3]: 20 µL/min/mg
- Papp A→B at 1 h, 10 µM [4]: 1.9 ×10⁻⁶ cm/s

SMILES: CNC(=O)[C@@H](NC(=O)[C@@](O)(CCCN(Cc1ccc(-c2cccnc2)cc1)NC(=O)[C@@H](NC(=O)OC)C(C)(C)C)Cc1ccccc1)C(C)(C)C
- CC50 at 120 h [1]: > 50 µM
- Ki (Protease): 0.0031 µM
- EC50 [2]: 1 µM
- microsomal CLint [3]: 63 µL/min/mg
- Papp A→B at 1 h, 10 µM [4]: < 1 ×10⁻⁶ cm/s

SMILES: COC(=O)N[C@H](C(=O)NN(CCC[C@@](O)(Cc1ccccc1)C(=O)N[C@H]1c2ccccc2C[C@H]1O)Cc1ccc(-c2ccncc2)cc1)C(C)(C)C
- EC50 [2]: 0.17 µM

SMILES: CNC(=O)[C@H](Cc1ccccc1)NC(=O)[C@@](O)(CCCN(Cc1ccc(Br)cc1)NC(=O)[C@@H](NC(=O)OC)C(C)(C)C)Cc1ccccc1
- CC50 at 120 h [1]: > 10 µM
- Ki (Protease): 0.17 µM
- EC50 [2]: 8.2 µM

SMILES: CNC(=O)[C@@H](NC(=O)[C@@](O)(CCCN(Cc1ccc(-c2nccs2)cc1)NC(=O)[C@@H](NC(=O)OC)C(C)(C)C)Cc1ccccc1)C(C)(C)C
- CC50 at 120 h [1]: > 50 µM
- Ki (Protease): 0.0035 µM
- EC50 [2]: 3.7 µM

SMILES: CNC(=O)[C@@H](NC(=O)[C@@](O)(CCCN(Cc1ccc(-c2ccc3c(c2)OCO3)cc1)NC(=O)[C@@H](NC(=O)OC)C(C)(C)C)Cc1ccccc1)C(C)(C)C
- CC50 at 120 h [1]: > 50 µM
- Ki (Protease): 0.0048 µM
- EC50 [2]: 1.2 µM
